This note sets out measurements from patent US4774248A, “Methods of treating depression and depressive states using 5-phenyl-1,4,5,6-tetrahydropyrimidine derivatives” (priority 1985, dated 1988).

The test system of one data set is rats. The experiment in a line: Overall behavior and reactivities in rats. Format: in vivo. The settings on record: i.p. In short, it runs like this: (§1)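 Male mice (20 ml/kg) and male rats (5 ml/kg) dosed intraperitoneally with compound in distilled water.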
Data set [1] has as its system hypothermia, righting behavior and stereotypies induced by apomorphine. The experiment in a line: Interaction with apomorphine in mice. Format: in vivo. The settings on record: i.p. In short, it runs like this: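 Male mice, groups of 6, given test compound intraperitoneally in distilled water (20 ml/kg) 30 min before subcutaneous apomorphine at 1 or 16 mg/kg. Hypothermia, righting behaviour and stereotypies scored.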

For data set [2], the system named is mice. The experiment in a line: Electric shock. Format: in vivo. The settings on record: i.p. As to the method:
(§2) The results of toxicological and neuropsychopharmacological tests which were carried out with the products according to the invention have been summarized below. In these tests, solutions of the said products in distilled water were administered intraperitoneally in a volume of 20 ml/kg to male mice and in a volume of 5 ml/kg to male rats.
The test is performed on groups of 10 mice 30 minutes after the administration of CRL 41 378.

A short description of data set [3]: Acute toxicity, intraperitoneal (LD0, LD30, LD60, LD100). Format: in vivo. The settings on record: mouse, in vivo, ip; 128 mg/kg i.p., male mice; read-out: death 24 h after administration. As to the method: as §2
Another data set has as its system male mice. Described as above. Format: in vivo. The procedure: as §2
The test system of data set [4] is mice. The experiment in a line: Spontaneous motility (actimeter). Format: in vivo. Particulars: i.p. As to the method: as §2
0.5 h after they have received CRL 41 378, the mice (6 per dose, 12 control animals) are placed in an actimeter, where their motility is recorded for 30 minutes.

Data set [5] relates to mice. The experiment in a line: Intergroup aggressiveness. Format: in vivo. The settings on record: mice, i.p. The essentials: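 Male mice housed 3 weeks per group in cage halves split by an opaque partition; groups of 3 given CRL 41 378 i.p. in distilled water.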
Data set [6] has as its system stereotypies induced by apomorphine. In words: Interaction with apomorphine in rats. Format: in vivo. Particulars: i.p., apomorphine 0.5 mg/kg s.c. As to the method:
as §2
CRL 41 378 is administered to groups of 12 rats 0.5 h before the subcutaneous injection of 0.5 mg/kg of apomorphine.

The test system of data set [7] is mice. The experiment in a line: Motility reduced by hypoxic aggression (acute hypobaric anoxia). Format: in vivo. Particulars: i.p. As to the method: In these tests, solutions of the said products in distilled water were administered intraperitoneally in a volume of 20 ml/kg to male mice and in a volume of 5 ml/kg to male rats.
Data set [8] deals with hypothermia and ptosis induced by reserpine. The experiment in a line: Interaction with reserpine. Format: in vivo. The settings on record: mice, i.p.; reserpine 2.5 mg/kg. The essentials: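 Reserpine 2.5 mg/kg i.p. given to male mice in groups of 12; test compound dissolved in distilled water and given i.p. (20 ml/kg) four hours later.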
Data set [9] deals with hypothermia, trembling and peripheral cholinergic symptoms induced by oxotremorine. In words: Interaction with oxotremorine. Format: in vivo. The settings on record: mice, i.p.; oxotremorine 0.5 mg/kg. The essentials:
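Male mice, groups of 6, given the compound intraperitoneally in distilled water (20 ml/kg) 0.5 h before 0.5 mg/kg oxotremorine i.p. Hypothermia, trembling and peripheral cholinergic symptoms were assessed.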

Data set [10] relates to central nervous system (CNS). The experiment in a line: Neuropsychopharmacological profile (conclusions of the tests). Format: in vivo, mice and rats. The settings on record: i.p. As to the method:
as §2

Data set [11] has as its system mice. In words: Overall behavior and reactivities in mice. Format: in vivo. Particulars: i.p. The essentials: as §1

Entries after “also recorded” stand apart in the source; their conditions may differ.

Consider `Cl.Clc1ccc(C2CN=CNC2)cc1` (stereo not drawn) [CRL 41 336, 5-(4-chlorophenyl)-1,4,5,6-tetrahydropyrimidine hydrochloride], for which the “overall behavior and reactivities” value in the data set with rats (4 mg/kg) was “mydriasis for 2 hours (maximum 0.5 h after administration)”; in the data set with rats (16 mg/kg, hydrochloride) it was “sedation for 3 h; also recorded: a decrease in the breathing rate for 3 h; also recorded: mydriasis for 3 h (with its maximum intensity 0.5 h after administration); also recorded: piloerection for 1 h; also recorded: vasodilation (of the paws) for 2 h”; in the data set on rats (0.25 and 1 mg/kg) it was “behavior, reactivities and variations in rectal temperature and pupil diameter which are substantially comparable to those of the animals in the control group”; in the data set on mice [11] (32 mg/kg, hydrochloride) it was “sedation for 0.25 h; also recorded: a decrease in the breathing rate from 1 to 3 hours; also recorded: moderate hypothermia; also recorded: vasodilation of the ears and tail from 0.5 h to 3 h”; in the data set with mice [11] (0.5 to 8 mg/kg), “no distinct modification of the behavior and reactivities”. Besides, the “action on hypothermia induced by apomorphine” value in [1] was “distinct antagonism of the hypothermia induced by apomorphine and oxotremorine”. Also, in [1], the “action on righting behavior and stereotypies due to apomorphine” value was “decreases the stereotypies induced by apomorphine in rats and mice”. Further, the “lethal effects of electric shock” value in the data set on mice [2] is recorded as “aggravation of the lethal effect of electric shock”. Further, in data set [3], the mortality at 24 h turned out to be 60%. For the same compound, the “toxic signs in the animals treated” value is “all the animals treated exhibit sedation and a decrease in the breathing rate” in the data set on male mice (64 mg/kg i.p.); “the animals exhibit sedation and a decrease in the breathing rate” with male mice (128 mg/kg i.p.). Also, in the data set with male mice (intraperitoneal), the “LD0 (maximum non-lethal dose)” value is “greater than 64 mg/kg”. Also, the LD60 entry with male mice (intraperitoneal) was “about 128 mg/kg”. Besides, the “LD100 (minimum dose lethal to all the animals)” value with male mice (intraperitoneal) lay in the range of 200 to 210 mg/kg. Besides, the spontaneous motor activity entry in the data set on mice [4] is “a decrease in the spontaneous motor activity”. Also, the “intergroup aggressiveness (number of fights)” value with mice [5] is recorded as “a decrease in the intergroup aggressiveness in mice”. The “action on stereotypies induced by apomorphine” value in data set [6] was “decreases the stereotypies induced by apomorphine in rats and mice”. Besides, the “motor recovery after acute hypobaric hypoxia” value in the data set with mice [7] was “a decrease in the motility after acute hypobaric hypoxia”. Moreover, the “action on hypothermia induced by reserpine” value in data set [8] is listed as “more moderate antagonism of the hypothermia induced by reserpine”. In addition, in [9], the “action on hypothermia induced by oxotremorine” value was “distinct antagonism of the hypothermia induced by apomorphine and oxotremorine”. Further, in [10], the antidepressant effects result is listed as “antidepressant effects”. Besides, the “peripheral α-adrenergic stimulant effects” value in data set [10] was “peripheral α-adrenergic stimulant effects appearing at high doses, especially as mydriasis and piloerection in rats”. Moreover, the sedative effects result in data set [10] (hydrochloride) was “sedation in mice and rats; also recorded: hypothermia (transient) in mice”. In the data set with mice [11] (32 mg/kg, from 1 to 3 hours), the moderate hypothermia is -1.3 °C.
